The results in this text go back to patent US20240059691A1 (KALVISTA PHARMACEUTICALS LIMITED, priority 2020, published 2024).

The target in this experiment is Human Factor XIIa (Homo sapiens (Human), UniProt P00748). In words: Determination of FXIIa inhibition (fluorogenic substrate H-DPro-Phe-Arg-AFC, IC50 assay). It is filed as biochemical. Conditions: substrate H-DPro-Phe-Arg-AFC at Km, 25° C.; class scale A-G. On the procedure: Determination of FXIIa Inhibition
In vitro inhibition of Factor XIIa was determined using an IC50 assay based on standard literature methods (see e.g Baeriswyl et al., ACS Chem. Biol., 2015, 10 (8) 1861; Bouckaert et al., European Journal of Medicinal Chemistry 110 (2016) 181). Human Factor XIIa (Enzyme Research Laboratories) was incubated at 25° C. with the fluorogenic substrate H-DPro-Phe-Arg-AFC (Peptide Protein Science) and various concentrations of the test compound. Protease activity was measured by monitoring the accumulation of liberated fluorescence from the substrate over 5 min at 25° C. The linear rate of fluorescence increase per minute was expressed as percentage (%) activity. The Km for the cleavage of the substrate by FXIIa was determined by standard transformation of the Michaelis-Menten equation. The compound inhibitor assays were performed at substrate Km concentration. IC50 values were calculated as the concentration of inhibitor giving 50% inhibition (IC50) of the uninhibited enzyme activity (100%).

Chain of Human Factor XIIa (P00748 373-615): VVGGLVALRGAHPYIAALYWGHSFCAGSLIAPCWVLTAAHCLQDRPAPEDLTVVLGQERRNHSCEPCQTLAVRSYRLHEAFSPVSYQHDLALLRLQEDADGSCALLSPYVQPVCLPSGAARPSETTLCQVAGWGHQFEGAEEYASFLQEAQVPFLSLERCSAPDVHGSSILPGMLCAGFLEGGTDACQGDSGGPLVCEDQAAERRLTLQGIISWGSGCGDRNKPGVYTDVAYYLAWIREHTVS

In general, IC50 refers to the midpoint of a concentration-inhibition curve. In the case of `COCC1c2nnc(C(F)(F)F)n2CCN1c1cc(C)c(CNc2cccc3c(N)nccc23)cn1` (stereo not shown) [Example 1319, N5-((6-(8-(methoxymethyl)-3-(trifluoromethyl)-5,6-dihydro-[1,2,4]triazolo[4,3-a]pyrazin-7(8H)-yl)-4-methylpyridin-3-yl)methyl)isoquinoline-1,5-diamine], the IC50 lay within 10 to 100 nM.

Take `Nc1nccc2cc(NCc3ccc(OCc4ccncc4)nc3)ccc12` [Example 1014, 6-N-{[6-(pyridin-4-ylmethoxy)pyridin-3-yl]methyl}isoquinoline-1,6-diamine]: the IC50 lay within 3000 to 10000 nM.

Take `Nc1nccc2cc(NCc3ccnc(OC[C@@H]4CCn5ccnc5C4)c3)ccc12` (single isomer, unassigned) [Example 4412, 6-N-({2-[(7R*)-5H,6H,7H,8H-imidazo[1,2-a]pyridin-7-ylmethoxy]pyridin-4-yl}methyl)isoquinoline-1,6-diamine]: the IC50 was in the range of 100 to 300 nM.

In turn, `Cc1cc(N2CCn3c(nnc3C(F)(F)F)C2C)ncc1CNc1ccnc2[nH]c(Cl)cc12` (single isomer, unassigned) [Example 1316, (S*)-2-Chloro-N-((4-methyl-6-(8-methyl-3-(trifluoromethyl)-5,6-dihydro-[1,2,4]triazolo[4,3-a]pyrazin-7(8H)-yl)pyridin-3-yl)methyl)-1H-pyrrolo[2,3-b]pyridin-4-amine] returned an IC50 of 10 to 100 nM.

On to `CC(Oc1cc(CNc2ccc3c(N)nccc3c2)ccn1)C1CCN(C)CC1` (stereo not shown) [Example 4414, 6-N-({2-[1-(1-methylpiperidin-4-yl)ethoxy]pyridin-4-yl}methyl)isoquinoline-1,6-diamine], for which the IC50 lay within 100 to 300 nM.

`COc1nc(OCC2CCN(C)CC2)ccc1CNc1ccc2c(N)nccc2c1` [Example 1027, N6-((2-methoxy-6-((1-methylpiperidin-4-yl)methoxy)pyridin-3-yl)methyl)isoquinoline-1,6-diamine] gave a concentration for half-maximal inhibition (IC50) of 100 to 300 nM.

In the case of `CN1CCC(COc2ccc(CNc3cccc4c(N)ncnc34)cn2)CC1` [Example 1022, N8-[[6-[(1-methyl-4-piperidyl)methoxy]-3-pyridyl]methyl]quinazoline-4,8-diamine], the IC50 lay in the range of 10000 to 40000 nM.

The molecule `Cc1cc(N2CCn3c(nnc3C(F)(F)F)C2C)ncc1CNc1ccnc2[nH]c(Cl)cc12` (single isomer, unassigned) [Example 1315, (R*)-2-Chloro-N-((4-methyl-6-(8-methyl-3-(trifluoromethyl)-5,6-dihydro-[1,2,4]triazolo[4,3-a]pyrazin-7(8H)-yl)pyridin-3-yl)methyl)-1H-pyrrolo[2,3-b]pyridin-4-amine] yielded an IC50 of 10000 to 40000 nM.

Consider `Nc1nccc2cc(NCc3ccc(OCCCn4ccnc4)nc3)ccc12` [Example 1031, 6-N-({6-[3-(imidazol-1-yl)propoxy]pyridin-3-yl}methyl)isoquinoline-1,6-diamine], for which the IC50 was 1000 to 3000 nM.

In turn, `Nc1nccc2c(NCc3cc(N4CCn5c(nnc5C(F)(F)F)C4)cs3)cccc12` [Example 8459, N5-((4-(3-(Trifluoromethyl)-5,6-dihydro-[1,2,4]triazolo[4,3-a]pyrazin-7(8H)-yl)thiophen-2-yl)methyl)isoquinoline-1,5-diamine] had an IC50 of 100 to 300 nM.

`CN1CCC(COc2ccc(CNc3cnc4[nH]cc(Cl)c4c3)cn2)CC1` [Example 1020, 3-chloro-N-((6-((1-methylpiperidin-4-yl)methoxy)pyridin-3-yl)methyl)-1H-pyrrolo[2,3-b]pyridin-5-amine]: the IC50 is 1000 to 3000 nM.

As for `CN1CCC(CCc2cccc(CNc3ccc4c(N)nccc4c3)c2)CC1` [Example 4410, 6-N-({3-[2-(1-methylpiperidin-4-yl)ethyl]phenyl}methyl)isoquinoline-1,6-diamine], the IC50 lay in the range of 300 to 1000 nM.

On to `Cc1cc(N2CCn3c(nnc3C(F)(F)F)C2)ncc1CNc1ccc2c(N)ncc(Cl)c2c1` [Example 1334, 4-chloro-N6-((4-methyl-6-(3-(trifluoromethyl)-5,6-dihydro-[1,2,4]triazolo[4,3-a]pyrazin-7(8H)-yl)pyridin-3-yl)methyl)isoquinoline-1,6-diamine], for which the IC50 lay in the range of 300 to 1000 nM.

As to `Cn1ccnc1CCCOc1ccc(CNc2ccc3c(N)nccc3c2)cn1` [Example 1025, 6-N-({6-[3-(1-methylimidazol-2-yl)propoxy]pyridin-3-yl}methyl)isoquinoline-1,6-diamine], the IC50 lay within 300 to 1000 nM.

`CN1CCN(C(=O)Cc2ccc(CNc3ccc4c(N)nccc4c3)cc2)CC1` [Example 2179, 2-(4-{[(1-aminoisoquinolin-6-yl)amino]methyl}phenyl)-1-(4-methylpiperazin-1-yl)ethanone]: the half-inhibitory concentration (IC50) lay in the range of 1000 to 3000 nM.

For `CN1CCN(CCc2cccc(CNc3ccc4c(N)nccc4c3)c2)CC1` [Example 4288, 6-N-({3-[2-(4-methylpiperazin-1-yl)ethyl]phenyl}methyl)isoquinoline-1,6-diamine], the IC50 lay in the range of 3000 to 10000 nM.

`CC(C)N1CCC(OCc2cc(CNc3ccc4c(N)ncc(Cl)c4c3)ccn2)CC1` [Example 4296, 4-chloro-6-N-[(2-{[(1-isopropylpiperidin-4-yl)oxy]methyl}pyridin-4-yl)methyl]isoquinoline-1,6-diamine] returned an IC50 of 1000 to 3000 nM.

The molecule `Cc1cc(N2CCn3c(nnc3C(F)(F)F)C2)ncc1CNc1ccc2nccn2c1` [Example 1322, N-((4-methyl-6-(3-(trifluoromethyl)-5,6-dihydro-[1,2,4]triazolo[4,3-a]pyrazin-7(8H)-yl)pyridin-3-yl)methyl)imidazo[1,2-a]pyridin-6-amine] yielded an IC50 of 10000 to 40000 nM.

In the case of `COCC1c2nnc(C(F)(F)F)n2CCN1c1cc(C)c(CNc2cccc3c(N)nccc23)cn1` (single isomer, unassigned) [Example 1344, (R*)-N5-((6-(8-(methoxymethyl)-3-(trifluoromethyl)-5,6-dihydro-[1,2,4]triazolo[4,3-a]pyrazin-7(8H)-yl)-4-methylpyridin-3-yl)methyl)isoquinoline-1,5-diamine], the IC50 was in the range of 10 to 100 nM.

With `Cc1cc(N2CCn3c(nnc3C(F)(F)F)C2C)ncc1CNc1ccnc2[nH]c(Cl)cc12` (racemic) [Example 1314, 2-Chloro-N-((4-methyl-6-(8-methyl-3-(trifluoromethyl)-5,6-dihydro-[1,2,4]triazolo[4,3-a]pyrazin-7(8H)-yl)pyridin-3-yl)methyl)-1H-pyrrolo[2,3-b]pyridin-4-amine], the IC50 fell in the range of 10 to 100 nM.

As to `CCc1nc(N2CCn3c(nnc3C(F)(F)F)C2)ccc1CNc1cccc2c(N)nccc12` [Example 1336, N5-((2-ethyl-6-(3-(trifluoromethyl)-5,6-dihydro-[1,2,4]triazolo[4,3-a]pyrazin-7(8H)-yl)pyridin-3-yl)methyl)isoquinoline-1,5-diamine], the IC50 lay within 300 to 1000 nM.

Regarding `CN1CCC(CCOc2ccc(CNc3ccc4c(N)nccc4c3)cn2)CC1` [Example 1032, 6-N-({6-[2-(1-methylpiperidin-4-yl)ethoxy]pyridin-3-yl}methyl)isoquinoline-1,6-diamine], the 50% inhibitory concentration (IC50) was 300 to 1000 nM.

Consider `Cn1ccnc1COc1cc(CNc2cccc3c(N)nccc23)ccn1` [Example 4423, N5-((2-((1-methyl-1H-imidazol-2-yl)methoxy)pyridin-4-yl)methyl)isoquinoline-1,5-diamine], for which the IC50 lay within 3000 to 10000 nM.

Turning to `Cn1ccnc1CCCNc1ncc(CNc2ccc3c(N)ncc(Cl)c3c2)cn1` [Example 1038, 4-chloro-6-N-[(2-{[3-(1-methylimidazol-2-yl)propyl]amino}pyrimidin-5-yl)methyl]isoquinoline-1,6-diamine], the IC50 was 3000 to 10000 nM.

In turn, `CN1CCC(COc2ccc(CNc3ccc4c(N)nccc4c3)cn2)CC1=O` (stereo not shown) [Example 1015, 4-{[(5-{[(1-aminoisoquinolin-6-yl)amino]methyl}pyridin-2-yl)oxy]methyl}-1-methylpiperidin-2-one] showed a half-maximal inhibitory concentration (IC50) of 300 to 1000 nM.

Turning to `Nc1nccc2cc(NCc3ccnc(OCC4CCn5ccnc5C4)c3)ccc12` (stereo not shown) [Example 4408, N6-((2-((5,6,7,8-tetrahydroimidazo[1,2-a]pyridin-7-yl)methoxy)pyridin-4-yl)methyl)isoquinoline-1,6-diamine], the concentration for half-maximal inhibition (IC50) was 100 to 300 nM.

The molecule `CN1CCC(OCc2ccc(CN(C)c3ccc4cnccc4c3)cc2)CC1` [Example 2204, N-methyl-N-[(4-{[(1-methylpiperidin-4-yl)oxy]methyl}phenyl)methyl]isoquinolin-6-amine] yielded a 50% inhibitory concentration (IC50) of 300 to 1000 nM.

The molecule `CCC1c2nnc(C(F)(F)F)n2CCN1c1cc(C)c(CNc2cccc3c(N)nccc23)cn1` (single isomer, unassigned) [Example 1320, (R*)-N5-((6-(8-ethyl-3-(trifluoromethyl)-5,6-dihydro-[1,2,4]triazolo[4,3-a]pyrazin-7(8H)-yl)-4-methylpyridin-3-yl)methyl)isoquinoline-1,5-diamine] returned an IC50 of 10000 to 40000 nM.

For the molecule `Nc1nccc2cc(NCc3ccc(OCC4CCNCC4)nc3)ccc12` [Example 1016, 6-N-{[6-(piperidin-4-ylmethoxy)pyridin-3-yl]methyl}isoquinoline-1,6-diamine], the IC50 fell in the range of 100 to 300 nM.

`CN1C[C@@H]2C(COc3cc(CNc4cccc5c(N)nccc45)ccn3)[C@@H]2C1` (stereo partly drawn) [Example 4418, 5-N-[(2-{[(1R,5S)-3-methyl-3-azabicyclo[3.1.0]hexan-6-yl]methoxy}pyridin-4-yl)methyl]isoquinoline-1,5-diamine]: the concentration for half-maximal inhibition (IC50) was 300 to 1000 nM.

Take `CN1CCC(COc2ccc(CNc3ccc4c(N)ncnc4c3)cn2)CC1` [Example 1021, N7-((6-((1-methylpiperidin-4-yl)methoxy)pyridin-3-yl)methyl)quinazoline-4,7-diamine]: the 50% inhibitory concentration (IC50) fell in the range of 10000 to 40000 nM.
